Experimental data taken from patent publication US8940909B2, “Indicator platform” (Biosynth AG, priority 2009, dated 2015).

How the values were obtained:
Format in all cases: cell-based
Aeromonas hydrophila 292 = experiment: IO staining of colonies of beta-D-galactosidase positive/negative bacteria (Table IVb); details: Aeromonas hydrophila strain 292, b-gal +; 24 h on Nutrient Agar, 150 mg/l indicator, 100 mg/l IPTG; on G: Growth of colonies: key: −: absent; +/−: weak; +: strong; ++: very strong
[1] = test system: Staphylococcus saprophyticus 273; experiment: as above; details: Staphylococcus saprophyticus strain 273, b-gal +; 24 h on Nutrient Agar, 150 mg/l indicator, 100 mg/l IPTG; on G: Growth of colonies: key: −: absent; +/−: weak; +: strong; ++: very strong
Staphylococcus aureus 2 = experiment: as above; details: Staphylococcus aureus strain 2, b-gal −, 24 h on Nutrient Agar, 150 mg/l indicator, 100 mg/l IPTG
Escherichia coli 61 = experiment: as above; details: Escherichia coli strain 61, b-gal +; 24 h on Nutrient Agar, 150 mg/l indicator, 100 mg/l IPTG
Salmonella bongori 81 = experiment: as above; details: Salmonella bongori strain 81, b-gal +; 24 h on Nutrient Agar, 150 mg/l indicator, 100 mg/l IPTG
[2] = test system: Listeria monocytogenes (4b) 290; experiment: as above; details: Listeria monocytogenes (4b) strain 290, b-gal −; 24 h on Nutrient Agar, 150 mg/l indicator, 100 mg/l IPTG; on C: Color of colonies: key: −: absent; +/−: weak; +: strong; ++: very strong; on F: Fluorescence of colonies: key: −: absent; +/−: weak; +: strong; ++: very strong
Citrobacter freundii 181 = experiment: as above; details: Citrobacter freundii strain 181, b-gal +; 24 h on Nutrient Agar, 150 mg/l indicator, 100 mg/l IPTG
[3] = test system: Klebsiella pneumoniae 164; experiment: as above; details: Klebsiella pneumoniae strain 164, b-gal +; 24 h on Nutrient Agar, 150 mg/l indicator, 100 mg/l IPTG; on C: Color of colonies: key: −: absent; +/−: weak; +: strong; ++: very strong; on G: Growth of colonies: key: −: absent; +/−: weak; +: strong; ++: very strong
Shigella sonnei 133 = experiment: as above; details: Shigella sonnei strain 133, b-gal +/−; 24 h on Nutrient Agar, 150 mg/l indicator, 100 mg/l IPTG
Bacillus subtilis 65 = experiment: as above; details: Bacillus subtilis strain 65, b-gal −; 24 h on Nutrient Agar, 150 mg/l indicator, 100 mg/l IPTG
[4] = test system: Escherichia coli (O157:H7) 60; experiment: as above; details: Escherichia coli (O157:H7) strain 60, b-gal +; 24 h on Nutrient Agar, 150 mg/l indicator, 100 mg/l IPTG
Salmonella illa 73 = experiment: as above; details: Salmonella illa strain 73, b-gal +; 24 h on Nutrient Agar, 150 mg/l indicator, 100 mg/l IPTG
[5] = test system: Staphylococcus intermedius 31; experiment: as above; details: Staphylococcus intermedius strain 31, b-gal +; 24 h on Nutrient Agar, 150 mg/l indicator, 100 mg/l IPTG
[6] = test system: Shigella dysenteriae Serovar 1 131; experiment: as above; details: Shigella dysenteriae Serovar 1 strain 131, b-gal +/−; 24 h on Nutrient Agar, 150 mg/l indicator, 100 mg/l IPTG
[7] = test system: Pseudomonas aeruginosa 168; experiment: as above; details: Pseudomonas aeruginosa strain 168, b-gal −, 24 h on Nutrient Agar, 150 mg/l indicator, 100 mg/l IPTG; on C: Color of colonies: key: −: absent; +/−: weak; +: strong; ++: very strong; on G: Growth of colonies: key: −: absent; +/−: weak; +: strong; ++: very strong
Shigella boydii 135 = experiment: as above; details: Shigella boydii strain 135, b-gal −; 24 h on Nutrient Agar, 150 mg/l indicator, 100 mg/l IPTG
Enterobacter cloacae 245 = experiment: as above; details: Enterobacter cloacae strain 245, b-gal +; 24 h on Nutrient Agar, 150 mg/l indicator, 100 mg/l IPTG
Escherichia coli 270 = experiment: as above; details: Escherichia coli strain 270, b-gal +; 24 h on Nutrient Agar, 150 mg/l indicator, 100 mg/l IPTG
[8] = test system: Salmonella enteritidis 43; experiment: as above; details: Salmonella enteritidis strain 43, b-gal −; 24 h on Nutrient Agar, 150 mg/l indicator, 100 mg/l IPTG; further: key: −: absent; +/−: weak; +: strong; ++: very strong
Escherichia coli = experiment: IN and IO staining of bacterial colonies under anaerobic conditions; details: Nutrient Agar plates, anaerobically incubated with E. coli
Protocol: Nutrient Agar plates containing 150 mg/l of various substrates and 100 mg/l IPTG were inoculated with Escherichia coli. Plates were put in an anaerobic jar (Anaerojar, Oxoid), an AnaeroGen sachet (Oxoid) was added, the jar was closed and incubated for 24 hours at 37° C.
IN staining cannot be used under anaerobic conditions.

[9] = test system: Enterobacter aerogenes 242; experiment: IO staining of colonies of beta-D-galactosidase positive/negative bacteria (Table IVb); details: Enterobacter aerogenes strain 242, b-gal +; 24 h on Nutrient Agar, 150 mg/l indicator, 100 mg/l IPTG; on C: Color of colonies: key: −: absent; +/−: weak; +: strong; ++: very strong; on G: Growth of colonies: key: −: absent; +/−: weak; +: strong; ++: very strong
[10] = test system: Yersinia enterocolitica 175; experiment: as above; details: Yersinia enterocolitica strain 175, b-gal +/−; 24 h on Nutrient Agar, 150 mg/l indicator, 100 mg/l IPTG; on G: Growth of colonies: key: −: absent; +/−: weak; +: strong; ++: very strong
Serratia marcescens 40 = experiment: as above; details: Serratia marcescens strain 40, b-gal +; 24 h on Nutrient Agar, 150 mg/l indicator, 100 mg/l IPTG
[11] = test system: Streptococcus agalactiae 195; experiment: as above; details: Streptococcus agalactiae strain 195, b-gal −; 24 h on Nutrient Agar, 150 mg/l indicator, 100 mg/l IPTG; on C: Color of colonies: key: −: absent; +/−: weak; +: strong; ++: very strong; on F: Fluorescence of colonies: key: −: absent; +/−: weak; +: strong; ++: very strong

## Cn1cccc1C(=O)c1ccccc1-n1cc(O[C@@H]2O[C@H](CO)[C@H](O)[C@H](O)[C@H]2O)c2ccc(Cl)cc21 [Indicator I31a, 6-Chloro-1-[2-(N-methylpyrrole-2-carbonyl)phenyl]-1H-indol-3-yl-beta-D-galactopyranoside]
Aeromonas hydrophila 292
  C: Color of colonies: +
  F: Fluorescence of colonies: −
  G: Growth of colonies: +
[1]
  C: Color of colonies: +
  F: Fluorescence of colonies: −
  G: Growth of colonies: +
Staphylococcus aureus 2
  F: Fluorescence of colonies: −
  G: Growth of colonies: +
Staphylococcus aureus 2; footnote 2: S. aureus natural color
  C: Color of colonies: −
Escherichia coli 61
  C: Color of colonies: +
  F: Fluorescence of colonies: +/−
  G: Growth of colonies: +
Salmonella bongori 81
  C: Color of colonies: +/−
  F: Fluorescence of colonies: −
  G: Growth of colonies: +
[2]
  C: Color of colonies: −
  F: Fluorescence of colonies: −
  G: Growth of colonies: +/−
Citrobacter freundii 181
  C: Color of colonies: +
  F: Fluorescence of colonies: +/−
  G: Growth of colonies: +
[3]
  C: Color of colonies: +
  F: Fluorescence of colonies: +/−
  G: Growth of colonies: +
Shigella sonnei 133
  C: Color of colonies: +
  F: Fluorescence of colonies: +/−
  G: Growth of colonies: +
Bacillus subtilis 65
  C: Color of colonies: −
  F: Fluorescence of colonies: −
  G: Growth of colonies: +
[4]
  C: Color of colonies: +
  F: Fluorescence of colonies: +/−
  G: Growth of colonies: +
Salmonella illa 73
  C: Color of colonies: −
  F: Fluorescence of colonies: −
  G: Growth of colonies: +
[5]
  C: Color of colonies: +
  F: Fluorescence of colonies: −
  G: Growth of colonies: +
[6]
  C: Color of colonies: −
  F: Fluorescence of colonies: −
  G: Growth of colonies: +
[7]
  C: Color of colonies: −
  G: Growth of colonies: +
[7]; footnote 1: blue autofluorescence
  F: Fluorescence of colonies: −
Shigella boydii 135
  C: Color of colonies: −
  F: Fluorescence of colonies: −
  G: Growth of colonies: +
Enterobacter cloacae 245
  C: Color of colonies: +
  F: Fluorescence of colonies: +/−
  G: Growth of colonies: +
Escherichia coli 270
  C: Color of colonies: +
  F: Fluorescence of colonies: +/−
  G: Growth of colonies: +
[8]
  C: Color of colonies: −
  F: Fluorescence of colonies: −
  G: Growth of colonies: +
Escherichia coli
  C: Color of colonies: o-r
  D: Diffusion around colonies: +
  G: Growth of colonies: +
  I: Intensity of color: +
  L: Localization on colonies: +/−
  S: Size of colonies: 0.8 mm
[9]
  C: Color of colonies: +
  F: Fluorescence of colonies: +/−
  G: Growth of colonies: +
[10]
  C: Color of colonies: +/−
  F: Fluorescence of colonies: −
  G: Growth of colonies: +
Serratia marcescens 40
  C: Color of colonies: +
  F: Fluorescence of colonies: −
  G: Growth of colonies: +
[11]
  C: Color of colonies: −
  F: Fluorescence of colonies: −
  G: Growth of colonies: +/−
